Data on 10 compounds can be found in US4791139A, “Diphenyl ether derivatives and their use as insecticides” (Imperial Chemical Industries PLC, priority 1986, dated 1988).

Where only a bound is given, the exact number is not on record here.

By mortality is commonly meant the share of the test organisms that died.

Common to all, as to format: in vivo
Assay [1] relates to Nilaparvata lugens (brown plant hopper - nymphs). Description: Contact test, brown plant hopper - nymphs (NL), Rice plant. Conditions: 72 h, 500 ppm, 3 days, read-out: NL grading of mortality. A digest of the protocol: (§1)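 Product dissolved in acetone, then diluted with water holding 0.1% by weight wetting agent to give 100 to 500 ppm preparations. Pests were held on a host plant or foodstuff, and pests and/or medium were treated. Mortality was assessed one to seven days after treatment.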

Assay [2] relates to Tetranychus urticae (spider mites - ova). Description: Contact test, spider mites - ova (TUe), French bean leaf. Conditions: 144 h, 500 ppm, 6 days, read-out: TUE grading of mortality. An outline of the steps: as §1
For assay [3], the system named is Myzus persicae (aphids). Description: Contact test, aphids (MP), Chinese Cabbage leaf. The note with it: 72 h, 500 ppm, 3 days, read-out: MP grading of mortality. An outline of the steps: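 Aphids on a host plant and/or the plant itself were treated with 100–500 ppm of product, applied from acetone diluted in water containing 0.1% SYNPERONIC NX wetting agent. Mortality was scored usually one to seven days after treatment.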

Assay [4] relates to Blattella germanica (cockroach nymphs). Briefly: Residual test, cockroach nymphs (BG), Plastic pot. Conditions: 72 h, 500 ppm, 3 days, read-out: BG grading of mortality. A digest of the protocol: as §1
The subject of assay [5] is Musca domestica (houseflies - adults). Briefly: Contact test, houseflies - adults (MD), Cotton wool/sugar. Conditions: 24 h, 500 ppm, 1 day, read-out: MD grading of mortality. An outline of the steps:
as §1

The subject of assay [6] is Diabrotica balteata (rootworm larvae). Briefly: Residual test, rootworm larvae (DB), Filter paper/maize seed. Conditions: 72 h, 500 ppm, 3 days, read-out: DB grading of mortality. An outline of the steps:
as §1

The subject of assay [7] is Musca domestica (houseflies - adults). Description: Knockdown test, houseflies - adults (MD/KD), Cotton wool/sugar. Conditions: 500 ppm, 4 hours, read-out: MD/KD grading of knockdown. An outline of the steps:
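Product was dissolved in acetone and diluted with water containing 0.1% wetting agent to 100–500 ppm. The flies and/or their food medium were treated with the preparation. Mortality was scored 1–7 days after treatment, with an additional knockdown assessment for houseflies.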

Assay [8] relates to Chilo partellus (Maize stemborer - larvae). Briefly: Residual test, Maize stemborer - larvae (CP), Oilseed rape. Conditions: 72 h, 500 ppm, 3 days, read-out: CP grading of mortality. Here is the method:
The activity of the Product was determined using a variety of insect pests. The Product was used in the form of liquid preparations containing from 100 to 500 parts per million (ppm) by weight of the Product. The preparations were made by dissolving the Product in acetone and diluting the solutions with water containing 0.1% by weight of a wetting agent sold under the trade name "SYNPERONIC" NX until the liquid preparations contained the required concentration of the Product. "SYNPERONIC" is a Registered Trade Mark.
The test procedure adopted with regard to each pest was basically the same and comprised supporting a number of the pests on a medium which was usually a host plant or a foodstuff on which the pests feed, and treating either or both the pests and the medium with the preparations. The mortality of the pests was then assessed at periods usually varying from one to seven days after the treatment.
The results of the tests are given in Table III for each of the Products, at the rate in parts per million given in the second column as a grading of mortality designated as A, B or C wherein A indicates 80-100% mortality or knockdown (70-100% for Meloidogyne incognita), B indicates 50-79% mortality knockdown or knockdown (50-69% for Meloidogyne incognita) and C indicates less than 50% mortality or knockdown.
In Table III the pest organism used is designated by a letter code and the pests species, the support medium or food, and the type and duration of test is given in Table II.
(Maize stemborer - larvae)

In assay [9] the test system is Spodoptera exigua (lesser army worm - larvae). Briefly: Residual test, lesser army worm - larvae (SP), Cotton leaf. The note with it: 72 h, 500 ppm, 3 days, read-out: SP grading of mortality. An outline of the steps: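 Compound dissolved in acetone and diluted in water with 0.1% Synperonic NX wetting agent to 100–500 ppm. Pests on host plant or food, with pests and/or medium treated. Mortality assessed 1–7 days after treatment and graded A (80–100%), B (50–79%) or C (<50%).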

Assay [10] deals with Tetranychus urticae (spider mites - adult). Briefly: Contact test, spider mites - adult (TUa), French bean leaf. The note with it: 72 h, 500 ppm, 3 days, read-out: TUA grading of mortality. A digest of the protocol: as §1
Assay [11] deals with Meloidogyne incognita (Tomato root knot eelworm - larvae). Description: Residual test, Tomato root knot eelworm - larvae (MI), Semi in-vitro. Conditions: 168 h, rate column 500 ppm, application rate is half that recorded, 7 days, read-out: MI grading of mortality.
The test system of assay [12] is Heliothis virescens (tobacco budworm - larvae). Briefly: Residual test, tobacco budworm - larvae (HV), Cotton leaf. Conditions: 72 h, read-out: HV grading of mortality. An outline of the steps: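 Products applied as acetone solutions diluted in water with 0.1% wetting agent, at 100–500 ppm; pests on host plant or food, with pests and/or medium treated. Mortality or knockdown scored 1–7 days after treatment and graded A (80–100%), B (50–79%) or C (<50%).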

For the compound `FC(F)(F)C(=CCCc1cccc(Oc2ccccc2)c1)c1ccc(Br)cc1` [Compound 39, 1,1,1-Trifluoro-2-(4-bromophenyl)-5-(3-phenoxyphenyl)-pent-2-ene], the mortality at 500 ppm in assay [1] is under 50%; in assay [2], under 50%; in [3], under 50%; in [4] it was 50 to 79%; in assay [5], under 50%; in assay [6], under 50%. Moreover, the mortality at 500 ppm in assay [8] fell in the range of 80 to 100%. Besides, in assay [7], the pest or weed control at 500 ppm was under 50%.

Regarding `CCOc1ccc(C(=CC=Cc2cccc(Oc3ccccc3)c2)C(F)F)cc1` [Compound 65, 1,1-Difluoro-2-(4-ethoxyphenyl)-5-(3-phenoxyphenyl)penta-2,4-diene], the mortality at 500 ppm in [1], in [2], in [3], in [4], in [5] and in assay [6] was under 50% each time. Moreover, the mortality at 500 ppm in assay [9], in assay [10] and in assay [12] was under 50% throughout. For the same compound, in assay [11], the mortality at 250 µg/mL was under 50%. Further, the pest or weed control at 500 ppm in [7] is under 50%.

Regarding `CCOc1c(F)cc(C(=CC=Cc2ccc(F)c(Oc3ccccc3)c2)C(F)(F)F)cc1F` [Compound 67, 1,1,1-Trifluoro-2-(3,5-difluoro-4-ethoxyphenyl)-5-(4-fluoro-3-phenoxyphenyl)penta-2,4-diene], the mortality at 500 ppm in [1] is 80 to 100%; in assay [2], under 50%; in [3], 80 to 100%; in assay [4], under 50%; in [5] it was under 50%; in [6], 80 to 100%. Besides, the mortality at 500 ppm in assay [9] was 80 to 100%; in assay [10], under 50%; in assay [12], 80 to 100%. In assay [11], the mortality at 250 µg/mL is under 50%. The pest or weed control at 500 ppm in [7] is under 50%.

Turning to `FC(F)(F)Oc1ccc(C(=CC=Cc2cccc(Oc3ccccc3)c2)C(F)(F)Cl)cc1` [Compound 70, 1,1-Difluoro-1-chloro-2-(4-trifluoromethoxyphenyl)-5-(3-phenoxyphenyl)penta-2,4-diene], the mortality at 500 ppm in assay [1], in assay [2], in assay [3], in [4], in assay [5] and in [6] was under 50% in each case. Besides, the mortality at 500 ppm in assay [9], in [10] and in assay [12] was under 50% in each case. For the same compound, the mortality at 250 µg/mL in [11] lay in the range of 50 to 69%. The pest or weed control at 500 ppm in [7] was under 50%.

As to `Fc1cc(Br)c(C(=CC=Cc2cccc(Oc3ccccc3)c2)C(F)(F)F)c(F)c1OC(F)(F)F` [Compound 74, 1,1,1-Trifluoro-2-(2-bromo-4,6-difluoro-5-trifluoromethoxyphenyl)-5-(3-phenoxyphenyl)penta-2,4-diene], the mortality at 500 ppm in assay [1], in assay [2], in assay [3], in [4], in assay [5] and in [6] was under 50% throughout. The values for the mortality at 500 ppm in assay [9], in assay [10] and in [12] were under 50%, 50 to 79% and under 50%, respectively. Also, in assay [11], the mortality at 250 µg/mL was under 50%. Moreover, in assay [7], the pest or weed control at 500 ppm was under 50%.

With `Fc1cc(C(=CC=Cc2cccc(Oc3ccccc3)c2)C(F)(F)F)cc(F)c1OC(F)(F)F` [Compound 75, 1,1,1-Trifluoro-2-(3,5-difluoro-4-trifluoromethoxyphenyl)-5-(3-phenoxyphenyl)penta-2,4-diene], the mortality at 500 ppm in [1], in assay [2], in [3], in assay [4], in [5] and in assay [6] was under 50% throughout. Besides, the mortality at 500 ppm in assay [9], in assay [10] and in [12] was under 50% each time. For the same compound, in assay [11], the mortality at 250 µg/mL is under 50%. Also, the pest or weed control at 500 ppm in [7] was under 50%.

With `Fc1ccc(C=CC=C(c2ccc(OC(F)(F)F)cc2)C(F)(F)Cl)cc1Oc1ccccc1` [Compound 76, 1,1-Difluoro-1-chloro-2-(4-trifluoromethoxyphenyl)-5-(4-fluoro-3-phenoxyphenyl)penta-2,4-diene], the mortality at 500 ppm in [1] is 80 to 100%; in assay [2], under 50%; in assay [3], under 50%; in [4] it was under 50%; in [5], under 50%; in [6], 80 to 100%. The mortality at 500 ppm in assay [9], in assay [10] and in assay [12] was under 50% each time. For the same compound, the mortality at 250 µg/mL in [11] is under 50%. Also, the pest or weed control at 500 ppm in assay [7] is under 50%.

Consider `Fc1ccc(C=CC=C(c2ccc(OC(F)(F)F)cc2)C(F)F)cc1Oc1ccccc1` [Compound 77, 1,1-difluoro-2-(4-trifluoromethoxyphenyl)-5-(4-fluoro-3-phenoxyphenyl)penta-2,4-diene], for which the mortality at 500 ppm in assay [1] is 80 to 100%; in [2], under 50%; in assay [3], 80 to 100%; in assay [4], under 50%; in assay [5], under 50%; in assay [6] it was 80 to 100%. For the same compound, the mortality at 500 ppm in assay [9] was 80 to 100%; in [10], under 50%; in [12] it was 80 to 100%. Further, the mortality at 250 µg/mL in assay [11] is 50 to 69%. In addition, the pest or weed control at 500 ppm in assay [7] was under 50%.

Turning to `CCOc1ccc(C(CC=Cc2cccc(Oc3ccccc3)n2)C(F)(F)F)cc1` (centres unmarked) [Compound 99, 1,1,1-Trifluoro-2-(4-ethoxyphenyl)-5-(6-phenoxypyrid-2-yl)pent-4-ene], the mortality at 500 ppm in assay [1] is under 50%; in [2], under 50%; in [3] it was 50 to 79%; in [4] it was under 50%; in assay [5] it was 80 to 100%; in [6], under 50%. Also, the mortality at 500 ppm in assay [9] was 50 to 79%; in assay [10], under 50%; in [12], 80 to 100%. Moreover, the mortality at 250 µg/mL in [11] is under 50%. Also, the pest or weed control at 500 ppm in assay [7] was in the range of 80 to 100%.

As to `CCOc1ccc(C(=CC=Cc2cccc(Oc3ccccc3)n2)C(F)(F)F)cc1` [Compound 100, 1,1,1-Trifluoro-2-(4-ethoxyphenyl)-5-(6-phenoxypyrid-2-yl)penta-2,4-diene], the mortality at 500 ppm in assay [1] is 50 to 79%; in assay [2], under 50%; in [3] it was under 50%; in assay [4], under 50%; in [5], under 50%; in [6], under 50%. The mortality at 500 ppm in [9], in assay [10] and in assay [12] was under 50% in each case. The mortality at 250 µg/mL in [11] is under 50%. Also, the pest or weed control at 500 ppm in assay [7] was in the range of 50 to 79%.
